Drawing on ChEMBL document CHEMBL1150121, “A new cytotoxic calyculinamide derivative, geometricin A, from the Australian sponge Luffariella geometrica” (2002), this text covers zone of inhibition, GI50 and TGI for one compound.

SMILES strings stand for the structures. Converted amounts (≈) assume the structure as drawn.

The GI50 is the concentration giving 50% growth inhibition. A low value points to greater sensitivity of the cells. Broadly, the TGI is the concentration at which net growth stops.

What all share (type): functional
Test [1] relates to [Chlorella] fusca. In words: Antialgal activity against Chlorella fusca at 50 ug/disk by agar diffusion test. The conditions noted are these: Scenedesmus fuscus; read-out: IZ. (In agar diffusion tests the substance spreads into inoculated agar from a disc or well.)
Test [2] can be described thus: Growth inhibition of human HM02 cells.
Test [3] relates to Microbotryum violaceum. In words: Antifungal activity against Microbotryum violaceum at 50 ug/disk by agar diffusion test. The settings on record: read-out: IZ.
Test [4] deals with HepG2. Description: Growth inhibition of human HepG2 cells.

Turning to `COC(CC(O)C(C)C(O)C(C)/C=C(C)/C(C)=C/CC/C(C)=C\C(N)=O)[C@H]1O[C@]2(C[C@H](O)[C@H](C)[C@H](C/C=C/c3coc(C)n3)O2)C(C)(C)[C@H]1OP(=O)(O)O` (stereo partly specified) [GEOMETRICIN A], the zone of inhibition at 50 µg/disc in test [1] and in test [3] was 5 mm throughout. Further, the concentration for 50% growth inhibition (GI50) came out at 1.7 mg/L (≈ 2.17 µM) in test [2] and 2.8 mg/L (≈ 3.58 µM) in test [4]. Also, the total growth inhibition concentration (TGI) in test [2] was determined as 3.2 mg/L (≈ 4.09 µM); in test [4], 8.8 mg/L (≈ 11.2 µM).
